Where two headings read alike, the source gives them in different places.

One data set concerns the target T1, Human DGAT1 (Homo sapiens, UniProt O75907).
T1 construct: made in house; host or cells: Sf9 insect cells (baculovirus); microsomes
T1 sequence (O75907 1-488): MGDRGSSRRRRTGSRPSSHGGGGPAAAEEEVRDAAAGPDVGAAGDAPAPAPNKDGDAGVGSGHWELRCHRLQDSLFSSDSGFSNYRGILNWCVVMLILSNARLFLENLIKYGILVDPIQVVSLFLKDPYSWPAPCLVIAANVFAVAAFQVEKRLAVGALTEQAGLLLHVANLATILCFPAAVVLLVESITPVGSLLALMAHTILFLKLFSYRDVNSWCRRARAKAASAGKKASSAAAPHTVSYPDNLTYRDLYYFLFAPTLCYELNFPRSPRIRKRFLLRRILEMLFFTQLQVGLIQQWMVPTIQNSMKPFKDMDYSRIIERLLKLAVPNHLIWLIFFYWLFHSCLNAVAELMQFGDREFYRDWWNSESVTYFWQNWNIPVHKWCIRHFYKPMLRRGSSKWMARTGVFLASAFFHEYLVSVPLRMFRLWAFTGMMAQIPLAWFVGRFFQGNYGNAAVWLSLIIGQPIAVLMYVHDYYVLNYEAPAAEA
Put plainly: Human DGAT1 lipid extraction (LE) assay, inhibition of triacylglycerol product formation. In kind it is biochemical. As to conditions: human DGAT1 microsomes from Sf9 cells, read-out: hDGAT LE IC50. On the procedure:
Human DGAT1 was expressed in Sf9 insect cells using a baculovirus expression system. Microsomes were prepared and used as enzyme for in vitro inhibition testing in either of two formats measuring production of coenzyme A or tridecanoylglycerol product, respectively. All steps were performed at 21-23° C. All data for DGAT1 inhibition by test compounds were collected under conditions where product formation was linear with reaction time.
Some assays were performed with inclusion of didecanoylglycerol in the pre-reaction incubation of test compounds and enzyme. […] Extraction of tridecanoylglycerol product was accomplished via addition of 30 uL Microscint-E (Perkin Elmer) and 2 hours of incubation (sealed). Plates were read on a Microbeta Microplate reader. Inhibition was normalized to controls containing DMSO or 10 uM {4-[4-(4-amino-7,7-dimethyl-7H-pyrimido[4,5-b][1,4]oxazin-6-yl)phenyl]cyclohexyl}acetic acid. IC50s were fitted using GraphPad Prism to a sigmoidal dose response.

Data set [1] can be described thus: Pharmacokinetic assay in rats (Rat IV and PO PK). It counts as in vivo. As to conditions: male, Crl:CD (SD), plasma; for bioavailability: 2 mg/kg, absolute oral bioavailability from oral and intravenous AUC0-inf, normalized for dose, read-out: Rat % F. Here is the method:
Pharmacokinetic Assay in Rats (Rat IV and PO PK)
Male Crl:CD (SD) rats were housed individually in cages with clean bedding in a controlled environment (22 to 25° C. temperature, humidity of 30-70% RH, and a 12 hour light/12 hour dark cycle). Certified rodent diet was provided ad libitum to the rats. Rats were fasted overnight 14-16 hours prior to the dosing on each study day and fed approximately 4 hours post dose (following collection of the 4 hour blood sample). Water was available ad libitum. Normal healthy rats certified by the attending veterinarian were selected and acclimatized for a minimum of three days prior to initiation of the study. Rats were randomized according to the body weight and were identified with body markings.
Intravenous formulation of 1 mg/mL concentration was prepared in DMA (N,N-Dimethylacetamide):TEG (Tetraethylene glycol): Water for Injection (20:40:40) freshly on study day. Animals were dosed through tail vein to achieve a target dose of 1 mg/kg. Oral suspension at a target concentration of 2 mg/mL was prepared freshly in Tween 80 (2%) and 0.5% MC (Methylcellulose) (2:98) on the study day. Animals in the intravenous dosing group were dosed through tail vein to achieve a target dose of 1 mg/kg, and the animals in oral dosing group were dosed orally by an oral gavage needle to achieve a target dose of 2 mg/kg. The actual dose volume was based on the body weight obtained on the study day. On the study day, blood samples (approx. 300 μL/time point) were collected at 0.083, 0.25, 0.5, 1, 2, 4, 8 and 24 hours after intravenous bolus dose, and 0.25, 0.5, 1, 2, 4, 8 and 24 hours after dosing of oral gavage and transferred to a pre-labeled K2EDTA coated tubes. Blood volume was replaced with administration of equal volume of saline through the jugular vein. After collection of blood samples at each time point, the blood samples were stored immediately on ice, in chilled Cryoracks and centrifuged at 2320 g at 4° C. for 15 minutes. The plasma was separated and transferred to pre-labeled micro-centrifuge tubes and promptly frozen at −80+10° C. until bioanalysis.
The plasma concentrations were determined by using a fit for purpose analytical method based on protein precipitation, followed by LC-MS/MS analysis. Analyst Version 1.5.1 software was used to acquire and quantify data. Pharmacokinetic analysis of plasma concentration-time data was performed by a non-compartmental method using Pheonix WinNonLin™ (WLN) Version 6.3.
The area under the plasma concentration-time curve (AUC) from the time of dosing to the last quantifiable time point (AUC0-1) was determined by WLN using linear logarithmic trapezoidal rule. Terminal half life (T1/2) was determined by WLN using linear logarithmic trapezoidal rule for plasma concentrations following intravenous administration. The Absolute oral bioavailability (% F) was calculated by mathematical comparison of oral and intravenous AUC0-inf, normalized for dose.

The mark [2] stands for this setting: intravenous (tail vein), target dose 1 mg/kg, read-out: Rat IV AUC.
Where [3] appears, read: oral gavage, target dose 2 mg/kg, read-out: Rat PO AUC.

On to `Cc1cnc(-n2ccc3cc(N4CCOc5ncnc(N)c5C4=O)cc(C4CC4)c32)nc1` [Example 37, 4-Amino-6-(7-cyclopropyl-1-(5-methylpyrimidin-2-yl)-1H-indol-5-yl)-7,8-dihydropyrimido[5,4-f][1,4]oxazepin-5(6H)-one], for which the IC50 at Human DGAT1 turned out to be 11.7 nM. For the same compound, the area under the curve (AUC) in data set [1] (setting [2]) is 11700 ng·h/mL; in data set [1] (setting [3]), 11600 ng·h/mL. The bioavailability in data set [1] was 54.6%.

For `CC(C)(O)c1ccc(-n2ccc3cc(N4CCOc5ncnc(N)c5C4=O)ccc32)cn1` [Example 38, 4-Amino-6-(1-(6-(2-hydroxypropan-2-yl)pyridin-3-yl)-1H-indol-5-yl)-7,8-dihydropyrimido[5,4-f][1,4]oxazepin-5(6H)-one], the IC50 at Human DGAT1 was 29 nM. Besides, the figures for the AUC in data set [1] (setting [2]) and in data set [1] (setting [3]) were 2140 ng·h/mL and 4020 ng·h/mL, respectively. For the same compound, the bioavailability in data set [1] came out at 89%.

Take `COC(C)(C)Cn1ccc2cc(N3CCOc4ncnc(N)c4C3=O)ccc21` [Example 39, 4-amino-6-(1-(2-methoxy-2-methylpropyl)-1H-indol-5-yl)-7,8-dihydropyrimido[5,4-f][1,4]oxazepin-5(6H)-one]: the IC50 on Human DGAT1 was determined as 42.3 nM.

As to `CC(C)(O)Cn1ccc2cc(N3CCOc4ncnc(N)c4C3=O)cc(C3CC3)c21` [Example 40, 4-amino-6-(7-cyclopropyl-1-(2-hydroxy-2-methylpropyl)-1H-indol-5-yl)-7,8-dihydropyrimido[5,4-f][1,4]oxazepin-5(6H)-one], at Human DGAT1, the half-inhibitory concentration (IC50) was found to be 7.5 nM.

Turning to `CCOc1ncc(-n2ccc3cc(N4CCOc5ncnc(N)c5C4=O)ccc32)cn1` [Example 41], the IC50 on Human DGAT1 worked out at 23.8 nM.

As for `Nc1ncnc2c1C(=O)N(c1ccc3c(ccn3-c3ccc(C(F)(F)F)nc3)c1)CCO2` [WO12/162129, Ex 83, 4-amino-6-(1-(6-(trifluoromethyl)pyridin-3-yl)-1H-indol-5-yl)-7,8-dihydropyrimido[5,4-f][1,4]oxazepin-5(6H)-one], the area under the curve (AUC) in data set [1] (setting [2]) turned out to be 3380 ng·h/mL; in data set [1] (setting [3]), 3860 ng·h/mL. Moreover, in data set [1], the bioavailability was determined as 30.4%.

Regarding `Nc1ncnc2c1C(=O)N(c1ccc3c(ccn3-c3ccc(C(F)(F)F)cn3)c1)CCO2` [WO12/162129, Ex 88, 4-amino-6-(1-(5-(trifluoromethyl)pyridin-2-yl)-1H-indol-5-yl)-7,8-dihydropyrimido[5,4-f][1,4]oxazepin-5(6H)-one], the AUC in data set [1] (setting [2]) worked out at 3780 ng·h/mL; in data set [1] (setting [3]), 1780 ng·h/mL. For the same compound, the bioavailability in data set [1] worked out at 12.5%.

With `Cc1ccc(-n2ccc3cc(N4CCOc5ncnc(N)c5C4=O)ccc32)cn1` [WO12/162129, Ex 102, 4-amino-6-(1-(6-methylpyridin-3-yl)-1H-indol-5-yl)-7,8-dihydropyrimido[5,4-f][1,4]oxazepin-5(6H)-one], the AUC came to 975 ng·h/mL in data set [1] (setting [2]) and 2490 ng·h/mL in data set [1] (setting [3]). In addition, the bioavailability in data set [1] is 65.6%.

The record behind these values is patent publication US20150322082A1, “NOVEL COMPOUNDS AS DIACYLGLYCEROL ACYLTRANSFERASE INHIBITORS” (GLAXOSMITHKLINE LLC, priority 2012, published 2015).
